Data reported in patent publication US20100234362A1, “USE OF DIAZOXIDE FOR SUPPRESSING THE PLASMA INSULIN LEVEL IN A MAMMAL” (priority 2007, published 2010).
Where two headings read alike, the source gives them in different places.

Key:
[1] = literature clinical trials; cited from earlier work
[2] = system: plasma insulin and glucose levels; test: Standardised 500 kCal meal test before and after six months of Diazoxide: plasma glucose and insulin; type: in vivo, human; design: Whole Body Insulin Sensitivity: unit not given here
[3] = Plasma Diazoxide level by HPLC/UV; type: in vivo; conditions: male, human, at six months, mean daily dose 600±54 mg (5.7±0.5 mg/kg), oral, three times a day, read-out: plasma DZX level
From the text: Diazoxide was taken at t−30.

[4] = for Weight: 14 obese men after 6 months oral Diazoxide (mean 600±54 mg/day), mean ± SE, baseline 115.1 ± 3.4; for Waist circumference: baseline 116.9 ± 1.4
Protocol: All subjects received were explained the physiological principle of this study. They also received dietary advice to reduce caloric intake to the calculated basal requirements for ideal body weight (based on the Harrison-Bennedict equation) and the instruction to increase walking exercise to at least 30 minutes a day. All subjects were allowed to do more physical exercise; the amount of daily physical exercise was not recorded. All subjects were instructed how to perform home glucose measurements (HGM). Blood samples were taken in the fasting state, (a) 2 hours after breakfast, just before lunch, (b) 2 hours after lunch, just before dinner, (c) 2 hours after dinner, at bedtime, and (d) at 3 am.
Baseline measurements included body weight, body height, abdominal circumference, body composition by total body dual energy X-ray absorptiometry (DEXA), supine and upright blood pressure, HGM for two days and the assessment of serum glucose levels and serum insulin levels in response to a standarised test meal. […] Venous blood samples were taen through a venous line inserted into the forearm at −30, 0, 30, 45, 60, 90, 120, 180, 240 and 300 minutes.
After completion of all baseline measurements, the subjects started Diazoxide 50 mg (three times a day) which was taken before each meal. Subsequently, the outpatient clinic was visited every month where the following data were recorded: body weight, abdominal circumference, supine and upright blood pressure, the results of a two-day, 8-point HGM performed in the week preceding the visit and adverse effects. Every visit, the daily Diazoxide dose was increased by 3×50 mg until a maximum of 300 mg (three times a day) was reached or until adverse side effects occurred. The Diazoxide dose was not increased if clinically relevant edema persisted for ore than a month, if upright systolic blood pressure was <110 mm Hg, if upright diastolic blood pressure was <70 mm Hg, or if fasting home glucose level was >7 nmol/l, or non-fasting home glucose level was >11 nmol/l.
After six months of treatment, all measurements were repeated including the meal test. Diazoxide was taken at t−30. Blood samples taken during the meal test at t120 were also analysed for Diazoxide levels. […] The results of total body DEXA were expressed as kg lean body mass, fat mass and bone mass. Normal values for serum glucose levels and serum insuli levels during the test meal were obtained by performing this test in ten healthy, age-matched, non-obese men (BMI about 20 to about 25 kg/m^2).
All data are shown as mean values±standard error (SE). The paired t-test was used to analyse the response to Diazoxide treatment, employing the Bonferoni correction for multiple comparisons. A p-value of less than 0.05 was considered to be statistically significant.

[5] = maximal 200 mg/day divided in three dosages, eight weeks, 24 hyperinsulinemic patients; placebo 5.0 kg; cited from earlier work
plasma insulin levels = conditions: one week, cited from earlier work
[6] = 8-week weight-loss diet, hyperinsulinaemic obese subjects; cited from earlier work
[7] = cited from earlier work
[8] = system: blood glucose and insulin levels; conditions: about 0.4 to about 0.8 mg/kg body weight before each meal; subjects with postprandial hyperglycemia and reactive hypoglycemia; cited from earlier work
insulin secretion = conditions: at comparable dosages; cited from earlier work
[9] = DEXA, 6 months vs baseline, P<0.001
[10] = oral 300 mg per day divided in three dosages
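For change of LDL cholesterol in this document: obese men given oral Diazoxide before meals with dose raised monthly up to 300 mg three times daily, plus diet and walking advice, measured at baseline and after six months.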
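For change of systolic blood pressure in this document: obese men given oral Diazoxide before meals with dose raised monthly up to 300 mg three times daily, plus diet and walking advice, measured at baseline and after six months.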
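For decrease of diastolic blood pressure in this document: obese men given oral Diazoxide before meals with dose raised monthly up to 300 mg three times daily, plus diet and walking advice, measured at baseline and after six months.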
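For increase of adiponectin levels in this document: obese men given oral Diazoxide before meals with dose raised monthly up to 300 mg three times daily, plus diet and walking advice, measured at baseline and after six months.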

In the case of `CCCCCCCCCCC[C@@H](C[C@@H]1OC(=O)[C@H]1CCCCCC)OC(=O)[C@H](CC(C)C)NC=O` [Orlistat], the “(placebo-subtracted) net weight loss” value [1] is listed as ~3 kg.

For `CC1=NS(=O)(=O)c2cc(Cl)ccc2N1` [Diazoxide, 7-chloro-3-methyl-4H-1,2,4-benzothiadiazine 1,1-dioxide], the “reduction of AUCIns” value ([2]; 6 months vs baseline, P<0.001) was 63%, the “reduction of fasting insulin levels” value ([2]; 6 months vs baseline, P<0.001) was 65% and the “reduction of post-meal insulin peak levels” value ([2]; 6 months vs baseline, P<0.001) was 62%. The “increase of fasting glucose” value ([2]; 6 months vs baseline, P<0.01) was 0.8 ± 0.3 mmol/L, the “rise of AUCGluc” value ([2]; 6 months vs baseline, P<0.02) was 29% and the “increase of peak glucose” value ([2]; 6 months vs baseline, P=0.06) was 1.4 ± 0.7 mmol/L. The “increase of whole body insulin sensitivity” value ([2]; 6 months vs baseline, printed 95% CI: 60-145%, P<0.001) was 209%, the “Whole Body Insulin Sensitivity” value ([2]; after 6 months Diazoxide, baseline 3.0 ± 0.3, P<0.001) was 8.8 ± 1.2 and the Fasting glucose ([2]; after 6 months Diazoxide, baseline 5.5 ± 0.2, P<0.01) was 6.3 ± 0.3 mmol/L. The “Fasting Insulin” value ([2]; after 6 months Diazoxide, baseline 18.0 ± 2.3, P<0.001) was 5.6 ± 0.7 mU/L, the Peak glucose ([2]; meal test after 6 months Diazoxide, baseline 8.4 ± 0.3, NS) was 9.8 ± 0.7 mmol/L and the AUC insulin ([2]; meal test after 6 months Diazoxide, baseline 16.6 ± 2.1, P<0.001) was 5.4 ± 0.4 mU · 10^−3/L · min. For the same compound, the “Peak Insulin” value ([2]; meal test after 6 months Diazoxide, baseline 124 ± 17, P<0.001) was 35 ± 4 mU/L, the concentration at 150 min [3] was 50000 ± 5800 ng/mL and the “change of LDL cholesterol” value ([4]; 6 months vs baseline) was “did not change significantly”. For the same compound, the “change of systolic blood pressure” value ([4]; 6 months vs baseline) was “did not change”, the “decrease of diastolic blood pressure” value ([4]; 6 months vs baseline, 95% CI: 6.5-15.4 mm Hg, P<0.001) was 10.9±2.3 mm Hg and the “increase of adiponectin levels” value ([4]; 6 months vs baseline, P<0.001) was 100±17%. For the same compound, the “increase of HbAlc” value ([4]; 6 months vs baseline, P<0.02) was 0.5 % points, the “main dose limiting events” value ([4]; 14 men, six months, 300 to 900 mg/day, other adverse effects not observed) was “Hyperglycaemia (n=4) and edema (n=8)” and the Weight ([4]; P<0.001) was 105.7 ± 3.5 kg. For the same compound, the Weight ([4]; P<0.001, listed as DZX) was 105.7 ± 3.8 kg, the “Bone Mass” value ([4]; DEXA after 6 months Diazoxide, baseline 3.35 ± 0.14, NS) was 3.47 ± 0.11 kg and the “Fat Mass” value ([4]; DEXA after 6 months Diazoxide, baseline 40.1 ± 1.8, P<0.001) was 30.7 ± 2.1 kg. The “Soft Tissue LBM” value ([4]; DEXA after 6 months Diazoxide, baseline 70.2 ± 2.0, NS) was 70.6 ± 2.4 kg, the “change in soft tissue lean body mass or bone mass” value ([4]; DEXA, 6 months vs baseline) was “without a concomitant change” and the “change of total body fat mass” value [4, 9] was −23.3%. The “decrease of total body fat mass” value [4, 9] was 9.5 ± 1.9 kg, the “plasma insulin level at which substantial loss of body fat (decrease of 10 kg or more) occurred” value ([4]; FIG. 5, fasting insulin at 6 months, mean DZX dose in this subgroup 630±56 mg, about 30 pmol/L) was “below 4.5 mU/L” and the Urate ([4]; after 6 months Diazoxide, baseline 0.37 ± 0.01, P<0.02) was 0.32 ± 0.02 mmol/L. It also gave an HDL-Cholesterol ([4]; after 6 months Diazoxide, baseline 1.12 ± 0.07, P<0.05) of 1.25 ± 0.09 mmol/L, a Triglycerides ([4]; after 6 months Diazoxide, baseline 2.17 ± 0.26, P<0.001) of 1.08 ± 0.13 mmol/L and an LDL-Cholesterol ([4]; after 6 months Diazoxide, baseline 3.19 ± 0.32, NS) of 2.97 ± 0.23 mmol/L. The HbA1c ([4]; after 6 months Diazoxide, baseline 5.4 ± 0.1, P<0.02) was 5.9 ± 0.2%, the Adiponectin ([4]; after 6 months Diazoxide, baseline 6.4 ± 0.5, P<0.001) was 12.5 ± 1.2 mg/L and the BMI ([4]; after 6 months Diazoxide, baseline 33.8 ± 0.5, P<0.001) was 31.0 ± 0.7 kg/m^2. For the same compound, the “Diastolic BP” value ([4]; after 6 months Diazoxide, baseline 85.8 ± 2.1, P<0.001) was 74.9 ± 2.1 mmHg, the Waist circumference ([4]; after 6 months Diazoxide, P<0.001) was 107.7 ± 2.2 cm and the Waist circumference ([4]; after 6 months Diazoxide, P<0.001, listed as DZX) was 107.7±2.2 cm. For the same compound, the “Systolic BP” value ([4]; after 6 months Diazoxide, baseline 128.8 ± 3.2, NS) was 128.8 ± 3.0 mmHg, the “Glucosuria in fasting morning urine samples” value ([4]; during six months of treatment) was “not observed” and the “discontinuation because of side-effects” value ([4]; of eighteen obese men included) was “two men stopped because of side-effects (rash and edema, respectively)”. The mean weight loss ([4]; subgroup with weight loss between 5 and 10% (4/14 men)) was 6.7±0.5%, the mean weight loss ([4]; subgroup with weight loss less than 5% (5/14 men)) was 3.1±0.8% and the mean weight loss ([4]; subgroup with weight loss more than 10% (5/14 men)) was 15.7±0.7%. The weight loss [5] was 9.8 kg, the “effect on fasting or postprandial glucose levels” value (plasma insulin levels; [10]) was “without affecting fasting or postprandial glucose levels” and the “reduction of plasma insulin levels” value (plasma insulin levels; [10]) was “about 20%”. The “effect on plasma glucose and insulin levels” value (plasma insulin levels; oral 150 and 225 mg per day divided in three dosages) was “no significant effect”, the “effect on weight loss” value [6] was “No effect” and the plasma level ([7]; after six months, mean dosage about 585 mg/day) was “about 49 mg/l”. The body weight ([7]; after six months, mean dosage about 585 mg/day, from about 114 kg) was “about 103 kg”, the “tolerability of higher dosages” value ([7]; dose raised monthly from 150 to ultimately 900 mg/day) was “generally not tolerated due to side effects, in particular hyperglycaemia and edema” and the “effect on blood glucose and insulin levels” value [8] was “effective to normalize blood glucose and insulin levels”.

In the case of `Cc1c(C(=O)NN2CCCCC2)nn(-c2ccc(Cl)cc2Cl)c1-c1ccc(Cl)cc1` [Rimonabant], the “(placebo-subtracted) net weight loss” value [1] is listed as “about 6 kg”.

In the case of `CC(C)CC(N(C)C)C1(c2ccc(Cl)cc2)CCC1` (stereo not shown) [Sibutramine], the “(placebo-subtracted) net weight loss” value [1] is listed as “about 5 kg”.

For `CNC(=NS(=O)(=O)c1ccc(Cl)cc1)N1C[C@H](c2ccccc2)C(c2ccc(Cl)cc2)=N1` [Compound A, (4S)-3-(4-chlorophenyl)-N′-[(4-chlorophenyl)sulfonyl]-N-methyl-4-phenyl-4,5-dihydro-1-H-pyrazole-1-carboximidamide], the “inhibiting insulin secretion compared with Diazoxide” value (insulin secretion) is given as “more effective than Diazoxide”.
